In PubChem BioAssay AID504551 (Southern Research Specialized Biocontainment Screening …, 2011):

Each molecule was assayed on MAGI-CCR5/HeLa-R5-16 cell fusion, beta-gal luminescence (assay: inhibitors of CCR5-tropic HIV-1 Env cell-cell fusion, dose response, MAGI-CCR5 and HeLa-R5-16 cells, 2% serum, set 2 (AID 504551)).

| SMILES | IC50 [µM] |
| --- | --- |
| COc1ccccc1Cn1c(O)cc2nn(-c3nc4ccccc4s3)c(=O)c-2c1C | 3.73 |
| COc1ccc(Cn2c(O)cc3nn(-c4nc5ccccc5s4)c(=O)c-3c2C)cc1 | 3.57 |
| Cc1c2c(=O)n(-c3nc4ccccc4s3)nc-2cc(O)n1CCc1cccs1 | 3.7 |
| Cc1c2c(=O)n(-c3nc4ccccc4s3)nc-2cc(O)n1Cc1ccncc1 | 3.94 |
| Cc1c2c(=O)n(-c3nc4ccccc4s3)nc-2cc(O)n1Cc1ccccc1 | 3.94 |
| Cc1c2c(=O)n(-c3nc4ccccc4s3)nc-2cc(O)n1C1CC1 | 3.75 |
| Cc1c2c(=O)n(-c3nc4ccccc4s3)nc-2cc(O)n1Cc1cccnc1 | 3.64 |

Continued by falling IC50, values first:

| IC50 [µM] | SMILES |
| --- | --- |
| 3.5 | Cc1c2c(=O)n(-c3nc4ccccc4s3)nc-2cc(O)n1Cc1cccs1 |
| 3.49 | COc1ccc(CCn2c(O)cc3nn(-c4nc5ccccc5s4)c(=O)c-3c2C)cc1 |
| 3.42 | Cc1c2c(=O)n(-c3nc4ccccc4s3)nc-2cc(O)n1Cc1ccc(F)cc1 |
| 3.4 | Cc1c2c(=O)n(-c3nc4ccccc4s3)nc-2cc(O)n1Cc1ccccc1Cl |
| 3.36 | Cc1c2c(=O)n(-c3nc4ccccc4s3)nc-2cc(O)n1CCc1ccc(O)cc1 |
| 3.25 | Cc1c2c(=O)n(-c3nc4ccccc4s3)nc-2cc(O)n1CCC(C)C |
